Columns and labels:
ddY male mice [1] = test: Oxygen consumption during forced treadmill exercise in mice (reference example 2); type: in vivo, mouse; conditions: 5 times a week for 3 weeks
Protocol: In order to verify whether orotic acid has an effect of decreasing the oxygen consumption during exercise or not, the following test was performed. Twenty-four ddY male mice (6-week old) bred in a thermostatic animal chamber of 24±2° C. for one week or more under a light-dark cycle of 12 hours (lighting from 8:00 to 20:00) were prepared. These mice were divided into two groups. Each mouse in one group, CTL group, was administered with 0.5 mass % CMC solution in an amount of 10 mL per 1 kg of mouse body weight. Each mouse in the other group, OA group, was administered with 50 mg/mL of orotic acid suspended in 0.5 mass % CMC solution in an amount of 10 mL per 1 kg of mouse body weight. These administrations were performed 5 times a week for successive 3 weeks (15 times in total) for each mouse. Fasting of each mouse was started at 17:00 on the day of last administration. The mice were subjected to forced exercise using a mouse treadmill from 10:00 on the following day, and the oxygen consumption and the carbon dioxide production volume during exercise were measured. Incidentally, the forced exercise was performed for 30 minutes in total at a speed of 15 m/min for first 5 minutes, at a speed of 20 m/min for the following 5 minutes, and then at a speed of 25 m/min for 20 minutes. […] In addition, the respiratory quotient of each mouse was calculated as a value obtained by dividing the carbon dioxide production volume by the oxygen consumption.

male ddY mice = test: Limit swimming time in mice (reference example 3); type: in vivo, mouse
Protocol: The endurance-enhancing effect was verified using orotic acid as a test substance. Seven-week old male ddY mice were purchased from Japan SLC, Inc. and were each acclimatized for 7 days and then forced to swim with a weight on the tail. When a mouse could not come up to the water surface and stayed under the surface of the water for 5 seconds, the time thereof was measured as the limit swimming time. The mice were divided into groups, such that there was no difference in limit swimming time between the groups, as follows: control group (CTL group, n=10), orotic acid 250 mg/kg administration group (OA 250 mg/kg group, n=10), and orotic acid 500 mg/kg administration group (OA 500 mg/kg group, n=10). The mice in each group were bred using roughage (CE-2), and the mice in OA 250 mg/kg group and OA 500 mg/kg group were orally administered with 250 mg/kg of orotic acid and 500 mg/kg of orotic acid, respectively, five times a week. After the grouping, the limit swimming time in each group was measured once a week while being bred for 3 weeks.

[2] = system: person suspected of having sleep apnea syndrome (SAS); test: SpO2 at apnea or hypopnea state in a person suspected of having sleep apnea syndrome; type: in vivo, human; conditions: one tablet of orotic acid-containing throat candy at bedtime, oral absorption
Description: A person suspected of having sleep apnea syndrome (SAS) ingested one tablet of the placebo throat candy manufactured in Example 3 at bedtime, and the maximum time of sleep apnea (a state in which breathing stops for 10 seconds of more) or hypopnea (a state in which ventilation by breathing falls to 50% or less for 10 seconds or more), which are detected with testing equipment for sleep apnea syndrome lent from a medical corporation Koshikai Ginza Yasue Clinic, and the SpO2 level at that time was measured two nights by the method in Example 1 (these levels are written by numerical numbers in the diagnostic results analyzed by the clinic software). The women then ingested one tablet of the orotic acid-containing throat candy manufactured in Example 3 at bedtime, and the maximum time of sleep apnea or hypopnea state and the SpO2 level at that time was measured by the same method as above two nights. In FIG. 6, the results in ingestion of one tablet of placebo throat candy are shown by round-shaped plots, and the results in ingestion of one tablet of orotic acid-containing throat candy are shown by diamond-shaped plots.

[3] = system: healthy women performing bike exercise; test: Change in energy consumption after bike exercise; type: in vivo, human; conditions: one tablet (200 mg) before exercise
Protocol: Six 22-year-old healthy women were divided into three groups of two. All the women were fasted for 24 hours (allowed only to drink water or tea), and two women of one group ingested one tablet of the orotic acid-containing throat candy (OA mouth-dissolving tablet), two women of another group ingested one tablet of the free form orotic acid monohydrate-containing tablets manufactured in Example 2 (OA tablet), and two women of the remaining group ingested one tablet of the placebo throat candy (non-ingestion), and the women performed bike exercise (exercise intensity: […]) for 30 minutes. Changes in energy consumption and changes in plasma uric acid level were measured at 2 hours, 3 hours, and 4 hours after completion of the exercise by the following measuring method. Exhalation was analyzed at immediately after completion of exercise and at 2 hours, 3 hours, and 4 hours after completion of exercise with AERO MONITOR AE 300S manufactured by Minato Medical Science Co., Ltd. Oxygen uptake volume and carbon dioxide production volume were measured, and the energy consumption (kcal/day) was determined by the following expression (1) to calculate the change in energy consumption. Energy consumption (kcal/day)=(3.9×oxygen uptake volume)+(1.1×carbon dioxide production volume) (1) Method for Measuring Change in Plasma Uric Acid Level

ddY male mice [4] = test: Oxygen consumption during non-exercise in mice (reference example 1); type: in vivo, mouse; conditions: 5 times a week for 4 weeks
Protocol: In order to verify whether orotic acid has an effect of decreasing the oxygen consumption during non-exercise or not, the following test was performed. Thirty-two ddY male mice (6-week old) bred in a thermostatic animal chamber of 24±2° C. for one week or more under a light-dark cycle of 12 hours (lighting from 8:00 to 20:00) were prepared. These mice were divided into two groups. Each mouse in one group (control group: CTL group) was administered with 0.5 mass % carboxymethyl cellulose solution (CMC solution) in an amount of 10 mL per 1 kg of mouse body weight. Each mouse in the other group (orotic acid administration group: OA group) was administered with orotic acid (50 mg/mL) suspended in 0.5 mass % CMC solution in an amount of 10 mL per 1 kg of mouse body weight. These administrations were performed 5 times a week for successive 4 weeks (20 times in total) for each mouse. Each mouse was transferred to a metabolism measurement chamber at 19:00 on the day of last administration to start fasting, and the oxygen consumption (VO2 [mL/min]) and carbon dioxide production volume (VCO2 [mL/min]) during the dark period from 20:00 to 8:00 on the following day were measured. […] In addition, the respiratory quotient (RER) of each mouse was calculated as a value obtained by dividing the carbon dioxide production volume by the oxygen consumption.

[5] = system: healthy women performing bike exercise; test: Change in plasma uric acid level after bike exercise (uricase-POD method); type: in vivo, human; conditions: non-ingestion group increase of 0.2 mg/dL
Protocol: Six 22-year-old healthy women were divided into three groups of two. All the women were fasted for 24 hours (allowed only to drink water or tea), and two women of one group ingested one tablet of the orotic acid-containing throat candy (OA mouth-dissolving tablet), two women of another group ingested one tablet of the free form orotic acid monohydrate-containing tablets manufactured in Example 2 (OA tablet), and two women of the remaining group ingested one tablet of the placebo throat candy (non-ingestion), and the women performed bike exercise (exercise intensity: […]) for 30 minutes. Changes in energy consumption and changes in plasma uric acid level were measured at 2 hours, 3 hours, and 4 hours after completion of the exercise by the following measuring method. The uric acid concentrations (mg/dL) at immediately after completion of exercise and at 4 hours after completion of exercise were determined by allowing peroxidase (POD) to act on hydrogen peroxide (H2O2), generated by oxidative decomposition of uric acid in a sample by the action of uricase, in the presence of 4-aminoantipyrine (4-AA) and a color former for oxidative condensation to generate a quinone dye (uricase-POD method). The resulting quinone dye is colorimetrically measured to calculate the change in plasma uric acid level.

[6] = system: human subjects in normobaric hypoxic room (oxygen concentration 12.4 to 12.7%); test: SpO2 and heart rate in a normobaric hypoxic room before and after administration of orotic acid; type: in vivo
Protocol: A person (subject A) entered a normobaric hypoxic room (oxygen concentration: 12.4 to 12.7%, equivalent to that at an altitude of about 4000 m, 23° C.) of Miura Dolphins and was then administered with 400 mg of orotic acid by repeating twice a method (sublingual administration) in which a mixture (400 mg) of free form orotic acid (manufactured by Kyowa Hakko Bio Co., Ltd., 200 mg) and L-carnitine (manufactured by Lonza Japan Ltd., 200 mg) wrapped in wafer paper was placed under the tongue and allowed to stay in the mouth for at least 30 seconds, and the SpO2 and heart rate were measured using a pulse oximeter PULSOX-300i (manufactured by Konica Minolta, Inc.). Incidentally, in this example, carnitine was used for enhancing the solubility of orotic acid in water (absorbability into oral mucosa (see Japanese unexamined Patent Application Publication No. 2015-43743). Subject A was required not to consciously change their breathing after entering the room. Three subjects ([subject A: the same subject as that Example 1], [subject B], and [subject C]) were subjected to a test according to the method described in [Test method 1] above. Subject A was subjected to examination of swallowing (oral administration) two tablets each containing 200 mg of free form orotic acid monohydrate (manufactured by Kyowa Hakko Bio Co., Ltd.) (400 mg of orotic acid in total) for comparison with sublingual administration. In this test, the oxygen concentration in the room was stable within a range of 12.4% to 12.7% throughout the test period.

For O=C(O)c1cc(=O)[nH]c(=O)[nH]1 [orotic acid], the “carbon dioxide production volume (VCO2) compared to control group” value (ddY male mice [1]) was “significantly decreased”, the “respiratory quotient (RER) compared to control group” value (ddY male mice [1]) was “not a significant difference” and the “oxygen consumption (VO2) compared to control group” value (ddY male mice [1]; orotic acid 50 mg/mL suspension 10 mL/kg) was “significantly decreased”. The “effect of oral administration on the day of administration or within one week” value (male ddY mice; experiments using mice, oral administration, at least three weeks needed for a significant difference) was “not observed”, the limit swimming time (male ddY mice; oral 250 mg/kg and 500 mg/kg, five times a week, 3 weeks) was “prolonged depending on the dose of orotic acid” and the “SpO2 level at the same apnea time, compared with no orotic acid (placebo throat candy)” value [2] was “higher than that when orotic acid was not ingested”. The “decrease in energy consumption at 2, 3 and 4 hours after bike exercise compared to immediately after exercise” value ([3]; oral absorption as throat candy) was “remarkable compared to that when orotic acid was ingested by oral administration”, the “energy consumption at 2, 3 and 4 hours after bike exercise compared to immediately after exercise” value ([3]; oral administration) was “decreased” and the “respiratory quotient (RER) compared to control group” value (ddY male mice [4]) was “not a significant difference”. For the same compound, the “carbon dioxide production volume (VCO2) compared to control group” value (ddY male mice [4]; dark period) was “significantly decreased”, the “oxygen consumption (VO2) compared to control group” value (ddY male mice [4]; dark period, orotic acid 50 mg/mL suspension 10 mL/kg) was “significantly decreased” and the “change of uric acid concentration between immediately after exercise and 4 hours after exercise (decrease)” value ([5]; orotic acid ingested by oral absorption as throat candy) was 0.05 mg/dL. For the same compound, the “change of uric acid concentration between immediately after exercise and 4 hours after exercise (increase)” value ([5]; orotic acid ingested by oral administration) was 0.1 mg/dL, the heart rate ([6]; subject A, 400 mg oral) was “did not have a considerable irregularity in heart rate” and the “sense of discomfort felt to be caused by hypoxia” value ([6]; subject A, 400 mg oral) was “merely slightly improved”. For the same compound, the “recovery of SpO2 level after oral administration” value ([6]; subject A, 400 mg oral (two swallowed tablets of free form orotic acid monohydrate), SpO2 decreased to 84%) was “hardly recovered”, the “SpO2 level about 30 minutes after sublingual administration” value ([6]; subject A, 400 mg orotic acid sublingual (mixed with L-carnitine, in wafer paper), SpO2 83% to 84% before administration) was 88% and the “SpO2 level stably maintained until leaving the room” value ([6]; subject A, 400 mg sublingual) was “about 88%”. The heart rate ([6]; subject A, 400 mg sublingual) was “no considerable irregularity in heart rate”, the “sense of discomfort felt to be caused by hypoxia” value ([6]; subject A, 400 mg sublingual) was “disappeared soon after ingestion of orotic acid” and the “time for which the increased SpO2 level was stably maintained” value ([6]; subject A, 400 mg sublingual, until leaving the room) was “at least 5 hours”. The “heart rate before and after administration” value ([6]; subject B, 400 mg sublingual) was “hardly changed”, the “symptoms such as light sleepiness and reduced concentration” value ([6]; subject B, 400 mg sublingual) was “cancelled” and the “SpO2 level recovered after sublingual administration” value ([6]; subject B, 400 mg sublingual, SpO2 82% before, increased at about 30 minutes after administration) was 86%. For the same compound, the “symptoms of altitude sickness, such as headache and bad feeling” value ([6]; subject C, 200 mg sublingual) was “disappeared”, the “SpO2 level recovered after sublingual administration” value ([6]; subject C, 200 mg sublingual at 2 hours and 40 minutes after entering the room) was “higher than 80%” and the “recovery of SpO2 level” value ([6]; subject C, 400 mg swallowed before dissolution of wafer paper (same as oral administration), SpO2 decreased to 70%) was “no recovery in the SpO2 level was observed”.

Source: US11331318B2, “Arterial oxygen saturation degree improver” (FURUKAWA RESEARCH OFFICE CO., LTD., priority 2017, dated 2022)
